Measured values taken from patent publication US5036008A, “Antitumor antibiotic BU-3285T” (Bristol-Myers Company, priority 1990, dated 1991).
Converted amounts (≈) assume the structure as drawn. “Also recorded” adds a separate entry of the source.

Experiments:
[1] = tested on: DNA biosynthesis in L1210 leukemia cells; assay: Inhibition of macromolecule biosynthesis, DNA (Table 7); assay type: cell-based, murine
Description: (§1) Inhibitory effects of BU-3285T on macromolecule biosynthesis (DNA, RNA and protein) were determined in cultured L1210 murine leukemia cells. The cells (5×10^5 cells/ml) were incubated with the compound at 37° C. for 15 minutes and then further incubated for 60 minutes after the addition of labelled precursor, ^3 H-thymidine, ^14 C-uridine or ^3 H-leucine into the cultured mixture. After washing with chilled 5% trichloroacetic acid solution, the radioactivity incorporated into the acid-insoluble fraction of the cells was determined by a liquid scintillation counter.

[2] = tested on: Petriellidium boydii IF08078; assay: In vitro antifungal activity, serial agar dilution; settings: Scedosporium boydii, IF08078, 40 h, pH 7
Description: (§2) In vitro antifungal activity was determined against various fungi by the serial agar dilution method. Sabouraud dextrose agar (pH 7.0) was used for the experiment. The inoculum size was adjusted to 10^6 CFU/ml. After incubation at 28° C. for 40 hours, the minimum inhibitory concentration (MIC) was examined.

[3] = tested on: HCT-116 (human colon carcinoma) cells; assay: In vitro cytotoxicity (Table 14); assay type: cell-based; settings: HCT-116, 72 h
Description: B16-F10 (murine melanoma), HCT-116 (human colon carcinoma), A549 (human lung carcinoma) and A549/VP29 (an etoposide-resistant subline of A549) were grown in Eagle's MEM (Nissui) supplemented with FCS (fetal calf serum, 10%) and non-essential amino acids (B16-F10), or in McCoy's 5A medium (Gibco) with FCS (10%), essential and non-essential amino acids, vitamins and antibiotics (HCT-116 and both of A549) at 37° C. under a humidified atmosphere in a 5% CO2 incubator. Exponentially growing B16-F10, HCT-116 and A549 cells were harvested, counted and suspended in the culture medium at 1.5×10^4, 3×10^4 and 3×10^4 cells/ml, respectively. After planting 180 μl of cell suspension into wells of a 96-well microtiter plate on day 0, the test materials (20 μl) were added on day 1 and the plates were incubated for 72 hours. The cytotoxic activity was colorimetrically determined at 540 nm after staining viable cells with neutral red solution.

[4] = tested on: protein biosynthesis in L1210 leukemia cells; assay: Inhibition of macromolecule biosynthesis, protein (Table 7); assay type: cell-based, murine
Description: as §1

[5] = tested on: Trichophyton mentagrophytes D155; assay: In vitro antifungal activity, serial agar dilution; settings: D155, 40 h, pH 7
Description: as §2

[6] = tested on: murine and human tumor cell lines; assay: In vitro cytotoxicity, overall statement
Description: After planting 180 μl of cell suspension into wells of a 96-well microtiter plate on day 0, the test materials (20 μl) were added on day 1 and the plates were incubated for 72 hours. The cytotoxic activity was colorimetrically determined at 540 nm after staining viable cells with neutral red solution.

[7] = tested on: RNA biosynthesis in L1210 leukemia cells; assay: Inhibition of macromolecule biosynthesis, RNA (Table 7); assay type: cell-based, murine; settings: Mus musculus, labelled precursor, 15 min + 60 min, 37° C., read-out: IC50, RNA synthesis
Description: as §1

Solubility = assay type: physicochemical
[8] = tested on: Aspergillus fumigatus IAM2530; assay: In vitro antifungal activity, serial agar dilution; settings: IAM2530, 40 h, pH 7
Description: as §2

L1210 leukemia = assay: In vivo antitumor activity against L1210 leukemia (Table 9); settings: for Body wt. change on day 6 / MST (median survival time) / T/C: Q1D × 3

For `CCCCC/C=C/C=C\C=C/C(O)C(C)C(C/C=C/C1OC(=O)C=CC1O)OS(=O)(=O)O` (stereo not shown) [BU-3285T], the IC50 ([1]; Mus musculus, L1210, 3H-thymidine, ^14 C-uridine or 3H-leucine precursor, 15 min + 60 min, 37° C., read-out: IC50, DNA synthesis) was greater than 100 µg/mL, the “inhibitory effect on DNA synthesis” value ([1]; at 100 μg/ml, the highest concentration tested) was “no significant inhibitory effect” and the MIC [2] was 0.8 µg/mL (≈ 1.7 µM). The IC50 [3] was 1.9 µg/mL (≈ 4.04 µM), the “inhibition of protein synthesis (specificity)” value ([4]; L-1210 leukemia cells) was “specific inhibitor of protein synthesis” and the IC50 ([4]; Mus musculus, L1210, labelled precursor, 15 min + 60 min, 37° C., read-out: IC50, protein synthesis) was 0.78 µg/mL. The “inhibition of protein synthesis stronger than RNA synthesis” value ([4]; protein vs RNA synthesis, L1210 cells) was 18 times, the MIC [5] was 25 µg/mL (≈ 53.1 µM) and the cytotoxicity in vitro ([6]; murine and human tumor cell lines) was “exhibits in vitro antifungal activity and cytotoxicity; also recorded: quite active”. The “IC50 values against the murine and human tumor cell lines (range)” value ([6]; range over cell lines of Table 14) was 1.9 to 38 µg/mL, the IC50 [7] was 14.4 µg/mL and the solubility in acetone (Solubility; acetone) was “slightly soluble”. The solubility in chloroform (Solubility; chloroform) was “insoluble”, the “solubility in dimethyl sulfoxide” value (Solubility; dimethyl sulfoxide) was “soluble” and the solubility in ethanol (Solubility; ethanol) was “soluble”. For the same compound, the “solubility in ethyl acetate” value (Solubility; ethyl acetate) was “slightly soluble”, the solubility in methanol (Solubility; methanol) was “soluble” and the solubility in n-hexane (Solubility; n-hexane) was “insoluble”. For the same compound, the solubility in water (Solubility; water) was “soluble”, the MIC [8] was 25 µg/mL (≈ 53.1 µM) and the “Body wt. change on day 6” value (L1210 leukemia; 0.1 mg/kg/day ip) was “+2.3 g”. The “MST (median survival time)” value (L1210 leukemia; 0.1 mg/kg/day ip) was 8.0 days, the T/C (L1210 leukemia; 0.1 mg/kg/day ip, significant if T/C ≥ 125%) was 114% and the “Body wt. change on day 6” value (L1210 leukemia; 0.3 mg/kg/day ip) was “+2.5 g”. The “MST (median survival time)” value (L1210 leukemia; 0.3 mg/kg/day ip) was 8.0 days, the T/C (L1210 leukemia; 0.3 mg/kg/day ip, *2 significant, T/C ≥ 125%) was 114% and the “Body wt. change on day 6” value (L1210 leukemia; 1 mg/kg/day ip) was “+1.5 g”. The “MST (median survival time)” value (L1210 leukemia; 1 mg/kg/day ip) was 9.0 days, the T/C (L1210 leukemia; 1 mg/kg/day ip, *2 significant, T/C ≥ 125%) was 129% and the “Body wt. change on day 6” value (L1210 leukemia; 3 mg/kg/day ip) was “+1.5 g”. The “MST (median survival time)” value (L1210 leukemia; 3 mg/kg/day ip) was 9.0 days, the T/C (L1210 leukemia; 3 mg/kg/day ip, *2 significant, T/C ≥ 125%) was 129% and the “Body wt. change on day 6” value (L1210 leukemia; 10 mg/kg/day ip) was 0.0 g. For the same compound, the “MST (median survival time)” value (L1210 leukemia; 10 mg/kg/day ip) was 10.5 days, the T/C (L1210 leukemia; 10 mg/kg/day ip, *2 significant, T/C ≥ 125%) was 150% and the “activity compared with mitomycin C” value (L1210 leukemia; L1210, in terms of minimum effective dose) was “somewhat weaker”. The “in vivo antitumor activity” value (L1210 leukemia; L1210 leukemia in mice) was “potent in vivo inhibitory activity; also recorded: good antitumor activity”.
